{"source": "patent US20250108064A1", "about": "“PHOSPHATE PRODRUGS OF CANNABINOIDS” (priority 2021, published 2025)", "key": {"physchem": {"experiment": "physchem", "assay_type": "physicochemical", "details": "aqueous buffer, kinetic from dmso stock; nephelometry, PBS pH 7.0-7.3, 1% DMSO, 25° C., 90 min", "procedure,_shortened": "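DMSO stocks of 10-50 mM were serially diluted and then diluted into DPBS (pH 7.0-7.3) to 1% final DMSO. After shaking for 90 min at 25° C, light scattering was read by nephelometry.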"}, "[1]": {"experiment": "Plasma stability (mouse plasma)", "assay_type": "in vitro ADME", "details": "read-out: T½ in mouse plasma (converted)"}, "[2]": {"experiment": "Liver microsome stability assay (MLM)", "assay_type": "in vitro ADME", "details": "mouse, mouse liver microsomes, pH 7.4; 3 μM test compound, NADPH; read-out: T 1/2 in MLM", "description": "General Experimental: Human and mouse liver microsomes were purchased from Xenotech at 20 mg/mL. NADPH (Sigma-Aldrich) 10 mM stocks were prepared in deionized water.\nProcedure for Liver Microsome Stability Assay: Test compounds and positive controls were dissolved in 100% DMSO to make 10 mM stock solutions. Verapamil (Sigma-Aldrich) and diphenhydramine (Sigma-Aldrich) were used as positive controls for both human liver microsomes (HLM) and mouse liver microsomes (MLM). The 10 mM stock solutions of test and control compounds were further diluted in potassium phosphate buffer (100 mM, pH 7.4) to 500 μM to ensure that the organic solvent content was <0.2%. The liver microsome (HLM or MLM) assay was prepared in a 1.5 mL Eppendorf tube with a final volume of 1100 μL for duplicate runs. Each reaction contained phosphate buffer (928.4 μL), liver microsomes (55 μL), and test compound (6.6 μL of 500 μM), resulting in a final concentration of 3 μM for the test compound. The reaction was initiated with 110 μL of 10 mM NADPH. Aliquots (100 μL) were removed in duplicate at 0, 5, 10, 15, and 30 min and quenched in […] of 100% cold methanol which contained internal standard (ISTD: d5-7-ethoxy coumarin 2 μM). The aliquots were centrifuged at 12,000 g for 5 min, and the supernatant was transferred and placed in an LC-MS vial. Each time point was assessed by LC-MS/MS, and the area under the m/z curve (AUC), based on the MRM transition, was integrated w.r.t the ISTD. Positive controls were conducted at a final volume of 550 μL to enable a single run for each time point. Negative controls in the absence of NADPH were performed with the test and control compounds, respectively, at a final volume of 150 μL and measured at the most prolonged time point. Control compounds were processed and analyzed like test compounds. […] Half-life (T1/2) was calculated using the data obtained from LC-MS/MS and by plotting ln (% remaining of the parent prodrug) versus time and performing linear regression to determine slope. […]"}, "[3]": {"experiment": "Plasma stability assay (human plasma)", "assay_type": "in vitro ADME", "details": "37° C., read-out: T½ in human plasma (converted)"}}}
{"compound": "C=C(C)[C@@H]1CCC(C)=C[C@H]1c1c(O)cc(CCCCC)cc1OC(=O)C1(OP(=O)(O)O)CC1.N.N", "note": "[7b, 1-((((1′R,2′R)-6-hydroxy-5′-methyl-4-pentyl-2′-(prop-1-en-2-yl)-1′,2′,3′,4′-tetrahydro-[1,1′-biphenyl]-2-yl)oxy)carbonyl)cyclopropyl phosphate di-ammonium salt]", "values": [{"measurement": "solubility", "setting": "physchem", "result": "> 500", "unit": "µM"}, {"measurement": "half-life", "setting": "[1]", "result": 222, "unit": "min"}, {"measurement": "half-life at 3 μM", "setting": "[2]", "result": 33, "unit": "min"}, {"measurement": "half-life", "setting": "[3]", "result": 318, "unit": "min"}]}
